Experiment [1] is described as follows: HEK293 Cytotoxicity Assay Measured in Cell-Based System Using Plate Reader - 7071-01_Inhibitor_Dose_CherryPick_Activity_Set2. The format is functional.
Experiment [2] concerns HEK293. As to the kind of experiment: HEK293T cell cytotoxicity, dose response, cytotoxicity control, ATP luminescence, cherry-pick samples (AID 687005).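 Also: cells exposed to compound for 48 hours.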 The format is functional, cell-based. The settings on record: Homo sapiens.
Experiment [3] in a line: RKO cell viability reduction, dose response, CellTiter-Glo luminescence (AID 1117322). The format is functional. (In general: ATP-based viability assays read luminescence as a measure of living cells.)
Experiment [4] in a line: cytotoxicity toward Colo320 cells – cell-based, CellTiter-Glo luminescence, IC50, dose response (AID 1117334). In kind it is functional. The settings on record: COLO 320.
Experiment [5] deals with Large T antigen (Simian virus 40, UniProt P03070). The format is functional, Betapolyomavirus macacae.
Experiment [6] can be described thus: SNU-C1 cell viability reduction, dose response, CellTiter-Glo luminescence (AID 1117323). In kind it is functional, cell-based.
The nature of experiment [7]: cytotoxicity in HPDE-C7 cells, cell-based, fluorescence, HTS (AID 430). In kind it is functional. The settings on record: Homo sapiens.
Experiment [8] is described as follows: CellTiter-Glo luminescent dose response of DLD-1 viability loss (AID 1117352). In kind it is functional.
Experiment [9] in a line: cytotoxicity in KRAS-transformed pancreatic duct cells, primary screen, cell-based, fluorescence, HTS (AID 431).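 Also: cell line used: HPDE-C7K.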 In kind it is functional. The settings on record: Homo sapiens.
The nature of experiment [10]: Concentration-dependent survival of SW480 colon cancer line, luminescence detection with CellTiter-Glo, half-maximal inhibitory concentration (AID 1117338). In kind it is functional.
The nature of experiment [11]: cytotoxicity toward HCT116 cells – cell-based, CellTiter-Glo luminescence, IC50, dose response (AID 1117332). The format is functional. The settings on record: HCT-116.
A short description of experiment [12]: HCT116 cell viability decrease, GSK3B pretreatment – CellTiter-Glo, IC50, dose response (AID 1117339). In kind it is functional. The settings on record: HCT-116.
Experiment [13] addresses T1, Zinc finger protein mex-5 (Caenorhabditis elegans, UniProt Q9XUB2).
T1 sequence (Q9XUB2 whole entry): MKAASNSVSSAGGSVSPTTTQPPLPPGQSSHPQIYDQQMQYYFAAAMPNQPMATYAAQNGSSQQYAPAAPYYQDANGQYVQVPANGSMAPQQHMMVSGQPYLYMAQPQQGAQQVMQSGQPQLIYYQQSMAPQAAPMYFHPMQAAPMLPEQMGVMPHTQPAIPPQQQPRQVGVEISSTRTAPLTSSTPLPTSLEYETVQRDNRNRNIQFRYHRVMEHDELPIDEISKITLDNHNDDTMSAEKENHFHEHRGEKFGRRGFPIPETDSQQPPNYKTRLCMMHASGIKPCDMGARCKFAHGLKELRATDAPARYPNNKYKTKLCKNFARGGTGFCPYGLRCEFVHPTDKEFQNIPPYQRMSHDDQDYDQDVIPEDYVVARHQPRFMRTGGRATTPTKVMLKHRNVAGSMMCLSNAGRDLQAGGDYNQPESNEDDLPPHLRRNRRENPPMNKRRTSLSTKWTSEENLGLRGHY
The experiment is described as follows: MEX-5/TCR-2 RNA interaction inhibitors, dose response, biochemical, C. elegans, fluorescence polarization (AID 1960). In general terms: Fluorescence polarisation rises when a labelled molecule tumbles more slowly, as on binding a larger partner.

For experiment [14], the target named is T2, Histone-lysine N-methyltransferase NSD2 (Homo sapiens, UniProt O96028).
T2 sequence (O96028 whole entry): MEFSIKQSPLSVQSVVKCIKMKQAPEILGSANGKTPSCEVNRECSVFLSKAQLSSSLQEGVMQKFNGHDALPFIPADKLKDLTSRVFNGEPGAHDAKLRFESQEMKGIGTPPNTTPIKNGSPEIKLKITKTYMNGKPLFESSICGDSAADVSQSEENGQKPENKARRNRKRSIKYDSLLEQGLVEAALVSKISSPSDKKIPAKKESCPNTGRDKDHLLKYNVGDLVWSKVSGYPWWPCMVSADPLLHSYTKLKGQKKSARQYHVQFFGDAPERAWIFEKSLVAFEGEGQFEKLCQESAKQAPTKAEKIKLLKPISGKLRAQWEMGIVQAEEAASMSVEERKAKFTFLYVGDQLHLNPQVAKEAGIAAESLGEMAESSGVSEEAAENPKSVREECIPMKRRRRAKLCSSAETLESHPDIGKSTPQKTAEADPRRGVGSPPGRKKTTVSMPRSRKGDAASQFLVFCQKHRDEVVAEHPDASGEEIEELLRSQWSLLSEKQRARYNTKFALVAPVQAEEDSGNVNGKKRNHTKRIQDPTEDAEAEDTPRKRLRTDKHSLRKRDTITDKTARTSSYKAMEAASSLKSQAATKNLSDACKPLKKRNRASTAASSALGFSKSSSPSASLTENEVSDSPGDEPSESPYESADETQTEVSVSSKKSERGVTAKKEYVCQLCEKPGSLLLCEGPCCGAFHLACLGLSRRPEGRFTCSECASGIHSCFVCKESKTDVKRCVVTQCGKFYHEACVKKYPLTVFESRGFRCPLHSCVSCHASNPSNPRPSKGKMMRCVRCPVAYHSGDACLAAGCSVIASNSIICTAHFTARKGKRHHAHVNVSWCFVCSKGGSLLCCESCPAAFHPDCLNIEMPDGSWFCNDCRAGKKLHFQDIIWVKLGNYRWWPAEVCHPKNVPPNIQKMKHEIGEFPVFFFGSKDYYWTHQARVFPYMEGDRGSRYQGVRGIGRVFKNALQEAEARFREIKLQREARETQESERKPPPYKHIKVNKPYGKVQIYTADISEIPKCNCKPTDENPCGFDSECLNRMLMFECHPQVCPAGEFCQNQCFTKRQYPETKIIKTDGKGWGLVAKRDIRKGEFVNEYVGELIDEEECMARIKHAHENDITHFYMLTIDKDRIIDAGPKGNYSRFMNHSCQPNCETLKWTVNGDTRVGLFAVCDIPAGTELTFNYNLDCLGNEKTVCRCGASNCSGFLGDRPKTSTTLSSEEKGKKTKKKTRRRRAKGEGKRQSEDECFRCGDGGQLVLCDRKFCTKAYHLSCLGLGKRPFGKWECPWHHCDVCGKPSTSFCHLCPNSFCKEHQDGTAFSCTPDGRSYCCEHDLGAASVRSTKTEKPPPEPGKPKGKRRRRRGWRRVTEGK
In kind it is biochemical.

Experiment [15] has as its target Protein Tat (Human immunodeficiency virus type 1 group M subtype B (isolate HXB2)(HIV-1), UniProt P04608). In kind it is functional.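 Also: tat binding to TAR RNA read out by fluorescence polarization.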
Experiment [16] addresses T3, RNA-binding protein pos-1 (Caenorhabditis elegans, UniProt G5EF15).
T3 sequence (G5EF15 whole entry): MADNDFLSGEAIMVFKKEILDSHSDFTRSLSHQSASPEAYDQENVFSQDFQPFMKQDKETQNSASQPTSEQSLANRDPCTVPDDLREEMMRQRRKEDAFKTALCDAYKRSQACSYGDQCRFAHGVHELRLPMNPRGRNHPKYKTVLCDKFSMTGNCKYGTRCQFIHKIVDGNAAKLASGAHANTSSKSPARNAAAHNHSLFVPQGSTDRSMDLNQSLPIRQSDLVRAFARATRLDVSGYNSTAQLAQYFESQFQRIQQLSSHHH
As to the kind of experiment: inhibitors of POS-1/mex-3 RNA binding, dose response, biochemical, fluorescence polarization (AID 1964).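 Also: purified POS-1 fused to maltose binding protein made in E. coli; potency of compounds blocking POS-1 binding to fluorescent RNA.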

Experiment [17] can be described thus: Glucagon-like peptide 1 release potency, NCI-H716 cell line, dose-response, half-maximal inhibitory concentration (AID 1117344). The format is functional, cell-based.
Experiment [18] can be described thus: Shn3 3'UTR reporter inhibitors, dose response, cell-based, Clone20 osteoblasts, firefly luciferase, cherry-picked (AID 624132).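 Also: firefly luciferase luminescence from reporter carrying the Shn3 3'UTR in osteoblasts.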 In kind it is functional.
The nature of experiment [19]: control 3'UTR Renilla luciferase suppression, dose response, counter-screen for Shn3 inhibitor project, cell-based, Clone20-Shn3RL, cherry-picked (AID 624133). The format is functional. Background: The purpose of a counterscreen is to sort out artefacts and off-target activity.
A short description of experiment [20]: HepG2 cell cytotoxicity, dose response, cytotoxicity control for Shn3 inhibitor project, CellTiter-Glo, cherry-picked (AID 624134). The format is functional, cell-based.
A short description of experiment [21]: reduction of Shn3 3'UTR firefly luciferase signal, dose response, Schnurri-3 inhibitor project, cell-based, Clone20 osteoblasts, cherry-pick, set 2 (AID 720490).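 Also: actives lower the luminescence signal as inhibitors.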 In kind it is functional.
Experiment [22] in a line: HepG2 cell cytotoxicity, dose response, cytotoxicity control, cherry-picked samples (AID 1159577). In kind it is functional, cell-based.
The nature of experiment [23]: P. falciparum Dd2 growth inhibitors, dose response, SYBR Green, cherry-picked samples (AID 1159567). In kind it is functional, cell-based.
Experiment [24] deals with 1-phosphatidylinositol 4,5-bisphosphate phosphodiesterase beta-3 (Homo sapiens, UniProt Q01970). As to the kind of experiment: Fluorescence-based biochemical high throughput dose response assay to identify inhibitors of phospholipase C isozymes (PLC-B3).
The target in experiment [25] is 1-phosphatidylinositol 4,5-bisphosphate phosphodiesterase gamma-1 (Homo sapiens, UniProt P19174). The experiment is described as follows: Counterscreen for inhibitors of phospholipase C isozymes (PLC-B3): Fluorescence-based biochemical high throughput dose response assay to identify inhibitors of phospholipase C isozymes (PLC-gamma1).
A short description of experiment [26]: HepG2 cell cytotoxicity, dose response, cytotoxicity control, plate reader, dry powder samples (AID 1159569).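 Also: inhibitor potency with signal falling toward the positive control level.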 The format is functional, cell-based.
The nature of experiment [27]: P. falciparum Dd2 growth inhibitors, dose response, SYBR Green, dry powder samples (AID 1159566).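 Also: potency for growth inhibition with lower SYBR green DNA signal.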 The format is functional, cell-based.
Experiment [28] can be described thus: P. falciparum ATP4 D1247Y mutant growth inhibitors, dose response, NITD609-resistant line, SYBR Green, dry powder (AID 1159571).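 Also: parasites synchronized at ring stage by sorbitol before testing.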 The format is functional, cell-based.
The nature of experiment [29]: P. falciparum 3D7-ScDHODH growth inhibitors, dose response, SYBR Green, dry powder samples (AID 1159570).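 Also: parasite growth measured after 72 hours of compound exposure.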 The format is functional, cell-based.

Calls of active or inactive are those of the source.

1-phosphatidylinositol 4,5-bisphosphate phosphodiesterase gamma-1, sequence (P19174 whole entry): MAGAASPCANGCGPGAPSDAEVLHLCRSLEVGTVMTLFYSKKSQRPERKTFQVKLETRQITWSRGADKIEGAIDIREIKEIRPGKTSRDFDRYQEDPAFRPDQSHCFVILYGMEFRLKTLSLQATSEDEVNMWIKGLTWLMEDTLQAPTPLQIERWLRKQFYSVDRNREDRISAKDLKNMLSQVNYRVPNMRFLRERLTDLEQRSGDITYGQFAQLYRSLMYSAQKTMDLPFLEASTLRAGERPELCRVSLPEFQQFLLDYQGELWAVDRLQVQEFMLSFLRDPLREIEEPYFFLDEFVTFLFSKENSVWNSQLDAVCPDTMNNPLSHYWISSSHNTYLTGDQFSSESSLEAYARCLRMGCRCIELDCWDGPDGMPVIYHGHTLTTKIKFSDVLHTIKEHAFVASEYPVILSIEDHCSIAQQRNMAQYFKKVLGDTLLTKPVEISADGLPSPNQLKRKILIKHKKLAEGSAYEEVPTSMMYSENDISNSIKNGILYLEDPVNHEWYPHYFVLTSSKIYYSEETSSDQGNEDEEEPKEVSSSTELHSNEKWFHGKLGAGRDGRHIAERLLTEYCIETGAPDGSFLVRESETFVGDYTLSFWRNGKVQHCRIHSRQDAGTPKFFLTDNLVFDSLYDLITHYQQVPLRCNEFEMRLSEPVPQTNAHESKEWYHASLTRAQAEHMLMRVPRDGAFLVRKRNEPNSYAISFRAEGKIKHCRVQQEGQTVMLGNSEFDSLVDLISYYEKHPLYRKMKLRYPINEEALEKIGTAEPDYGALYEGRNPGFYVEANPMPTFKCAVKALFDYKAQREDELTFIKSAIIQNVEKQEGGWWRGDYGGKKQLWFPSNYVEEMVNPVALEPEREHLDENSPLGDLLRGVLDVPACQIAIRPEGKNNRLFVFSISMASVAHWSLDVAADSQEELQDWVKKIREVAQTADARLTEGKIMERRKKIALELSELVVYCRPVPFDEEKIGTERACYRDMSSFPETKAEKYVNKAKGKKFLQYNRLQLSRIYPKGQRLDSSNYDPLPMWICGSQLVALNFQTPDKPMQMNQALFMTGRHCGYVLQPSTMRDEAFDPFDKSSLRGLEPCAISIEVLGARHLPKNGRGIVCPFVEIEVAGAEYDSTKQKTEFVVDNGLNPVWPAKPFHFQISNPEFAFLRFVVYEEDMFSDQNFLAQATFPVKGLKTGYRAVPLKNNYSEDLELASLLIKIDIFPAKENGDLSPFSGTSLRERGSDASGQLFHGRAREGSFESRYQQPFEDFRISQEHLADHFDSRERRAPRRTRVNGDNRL
1-phosphatidylinositol 4,5-bisphosphate phosphodiesterase beta-3, sequence (Q01970 whole entry): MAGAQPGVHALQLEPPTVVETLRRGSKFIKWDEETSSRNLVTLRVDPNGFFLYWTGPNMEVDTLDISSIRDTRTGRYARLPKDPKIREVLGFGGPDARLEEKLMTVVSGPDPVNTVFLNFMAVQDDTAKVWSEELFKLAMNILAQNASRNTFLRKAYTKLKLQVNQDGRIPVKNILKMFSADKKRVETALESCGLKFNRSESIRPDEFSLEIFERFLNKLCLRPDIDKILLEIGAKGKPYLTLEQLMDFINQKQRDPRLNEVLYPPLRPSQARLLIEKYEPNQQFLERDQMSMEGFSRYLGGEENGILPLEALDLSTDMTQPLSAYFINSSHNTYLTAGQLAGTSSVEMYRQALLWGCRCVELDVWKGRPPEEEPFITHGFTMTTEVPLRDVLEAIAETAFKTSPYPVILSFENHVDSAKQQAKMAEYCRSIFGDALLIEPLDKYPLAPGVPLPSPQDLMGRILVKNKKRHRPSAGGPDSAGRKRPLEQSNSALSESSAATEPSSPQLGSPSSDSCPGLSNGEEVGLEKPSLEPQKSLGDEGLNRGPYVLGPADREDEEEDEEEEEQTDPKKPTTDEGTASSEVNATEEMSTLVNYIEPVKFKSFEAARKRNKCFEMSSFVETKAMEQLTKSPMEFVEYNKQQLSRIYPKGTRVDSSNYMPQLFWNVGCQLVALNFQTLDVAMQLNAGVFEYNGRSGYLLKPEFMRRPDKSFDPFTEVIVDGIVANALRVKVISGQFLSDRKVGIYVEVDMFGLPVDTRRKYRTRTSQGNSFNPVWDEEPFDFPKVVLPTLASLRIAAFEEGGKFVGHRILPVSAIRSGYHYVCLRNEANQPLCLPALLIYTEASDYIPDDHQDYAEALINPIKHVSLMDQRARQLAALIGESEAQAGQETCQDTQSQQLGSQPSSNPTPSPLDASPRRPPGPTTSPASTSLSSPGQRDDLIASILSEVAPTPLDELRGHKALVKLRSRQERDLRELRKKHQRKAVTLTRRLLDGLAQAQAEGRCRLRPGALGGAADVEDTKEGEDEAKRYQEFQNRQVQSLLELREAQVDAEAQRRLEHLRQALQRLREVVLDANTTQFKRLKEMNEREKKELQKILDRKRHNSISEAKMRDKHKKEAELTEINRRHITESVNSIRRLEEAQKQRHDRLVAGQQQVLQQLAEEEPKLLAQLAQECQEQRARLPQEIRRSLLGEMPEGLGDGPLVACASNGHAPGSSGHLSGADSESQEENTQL
Protein Tat, sequence (P04608 whole entry): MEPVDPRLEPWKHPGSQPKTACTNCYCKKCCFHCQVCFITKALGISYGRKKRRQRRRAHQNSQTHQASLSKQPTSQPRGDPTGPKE
Large T antigen, sequence (P03070 whole entry): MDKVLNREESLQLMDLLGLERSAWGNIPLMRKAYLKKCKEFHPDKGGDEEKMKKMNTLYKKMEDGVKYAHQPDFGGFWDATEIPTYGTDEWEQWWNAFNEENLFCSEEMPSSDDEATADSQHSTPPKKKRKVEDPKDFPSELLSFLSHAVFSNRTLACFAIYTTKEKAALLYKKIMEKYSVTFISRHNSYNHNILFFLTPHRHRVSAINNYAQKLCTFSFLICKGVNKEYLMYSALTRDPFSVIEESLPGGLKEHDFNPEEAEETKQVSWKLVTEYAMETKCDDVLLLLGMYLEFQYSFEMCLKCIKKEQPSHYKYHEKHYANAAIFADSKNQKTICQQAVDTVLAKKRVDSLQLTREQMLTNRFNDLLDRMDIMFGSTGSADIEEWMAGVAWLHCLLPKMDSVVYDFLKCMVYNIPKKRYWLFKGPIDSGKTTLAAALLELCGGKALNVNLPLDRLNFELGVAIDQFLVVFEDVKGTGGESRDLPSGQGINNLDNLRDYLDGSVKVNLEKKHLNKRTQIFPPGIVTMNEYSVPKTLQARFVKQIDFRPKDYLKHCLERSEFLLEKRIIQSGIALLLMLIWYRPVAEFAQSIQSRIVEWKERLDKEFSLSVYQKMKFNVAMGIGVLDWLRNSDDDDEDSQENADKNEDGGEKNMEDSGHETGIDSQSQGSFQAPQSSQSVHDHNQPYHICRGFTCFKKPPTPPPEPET

Consider `Cc1cccc(-c2ccc([C@@H]3[C@@H](CO)N4CCCCN(S(=O)(=O)c5ccccc5C)C[C@@H]34)cc2)c1`, for which the AC50 in [1] and in experiment [2] was 19.3 µM (active) throughout.
With `C=C(CC)C(=O)c1ccc(OCC(=O)O)c(Cl)c1Cl` [ETHACRYNIC ACID], the IC50 in experiment [3] was > 6.67 µM (inactive); in experiment [4] it was > 20 µM (inactive); in [5], > 100 µM (active); in experiment [6], > 20 µM (inactive); in experiment [8], 11.9 µM (inactive); in experiment [10], > 6.67 µM (inactive). The IC50 is > 20 µM (inactive) in experiment [11] and 12.2 µM (inactive) in experiment [12]. The figures for the EC50 in [7] and in experiment [9] were 10.4 µM (active) and 11.3 µM (active), respectively.
On to `O=C(c1coc(=O)c(Br)c1)N1CCCc2ccccc21`, for which the EC50 in experiment [13] and in experiment [16] was > 300 µM (not active) throughout. Besides, the AC50 in [14] is 12.2 µM (active). Further, the IC50 in experiment [15] was 4.84 µM (inconclusive).
On to `Cc1ccc(C(=O)Nc2ccc(S(=O)(=O)O)c3cc(S(=O)(=O)O)cc(S(=O)(=O)O)c23)cc1NC(=O)c1cccc(NC(=O)Nc2cccc(C(=O)Nc3cc(C(=O)Nc4ccc(S(=O)(=O)O)c5cc(S(=O)(=O)O)cc(S(=O)(=O)O)c45)ccc3C)c2)c1` [SURAMIN], for which the IC50 in experiment [17] was > 40 µM (inactive).
For `CCOC(=O)c1oc2ccc(S(=O)(=O)n3nc(-c4ccc(OC)cc4)cc3N)cc2c1C`, the AC50 is 1.99 µM (active) in experiment [18], 30 µM (active) in experiment [19], 60 µM (active) in experiment [20] and 4.68 µM (active) in [21].
In the case of `COc1cccc(-c2ccc([C@H]3[C@H](C#N)N(C(=O)Cc4ccncc4)[C@H]3CO)cc2)c1`, the AC50 is 33.8 µM (active) in experiment [22] and 4.28 µM (active) in experiment [23].
In the case of `COc1ccc(CNC(=O)C(C)n2ccc3cc(S(=O)(=O)N4CCCCCC4)ccc32)cc1` (configuration not stated), the half-maximal activity concentration (AC50) is 0.518 µM (active) in experiment [18], > 70 µM (inactive) in experiment [20] and 17.4 µM (active) in [21].
In the case of `COc1ccc(CS(=O)(=O)c2nnc[nH]2)cc1`, the IC50 was > 123 µM (inactive) in experiment [24] and 15.5 µM (inactive) in [25].
With `COc1cc(CN2C[C@@H]3N[C@H](C2)[C@H]3c2ccc(-c3ccncc3)cc2)cc(OC)c1`, the half-maximal activity concentration (AC50) is 19.6 µM (active) in [26]; 1.16 µM (active) in [27]; 1.63 µM (active) in experiment [23]; 0.886 µM (active) in experiment [28]; 1.33 µM (active) in experiment [29].
Regarding `COc1cc(NS(=O)(=O)c2ccc(NC(=O)CN3C(=O)c4ccccc4C3=O)cc2)nc(OC)n1`, the IC50 in experiment [24] and in experiment [25] was > 122 µM (inactive) in each case.
For the molecule `N#C[C@@H]1[C@H](c2ccc(C#CC3CCCCC3)cc2)[C@@H](CO)N1C(=O)Cc1ccccn1`, the AC50 was > 39 µM (inactive) in experiment [22] and 3.79 µM (active) in experiment [23].

By AC50 is commonly meant the concentration giving half of the maximal activity seen. As a reminder, the IC50 is the concentration that gives 50% inhibition. Broadly, the EC50 is the concentration giving half of the maximal effect.

(Values after ChEMBL document CHEMBL1201862, “PubChem BioAssay data set” (2004).)
